This note sets out measurements from patent US20240018122A1, “PYRIDAZINYL AMINO DERIVATIVES AS ALK5 INHIBITORS” (CHIESI FARMACEUTICI S.P.A., priority 2020, published 2024).

Bounds are passed on as bounds.

Sequence of human ALK5 (P36897 80-503 limits assumed): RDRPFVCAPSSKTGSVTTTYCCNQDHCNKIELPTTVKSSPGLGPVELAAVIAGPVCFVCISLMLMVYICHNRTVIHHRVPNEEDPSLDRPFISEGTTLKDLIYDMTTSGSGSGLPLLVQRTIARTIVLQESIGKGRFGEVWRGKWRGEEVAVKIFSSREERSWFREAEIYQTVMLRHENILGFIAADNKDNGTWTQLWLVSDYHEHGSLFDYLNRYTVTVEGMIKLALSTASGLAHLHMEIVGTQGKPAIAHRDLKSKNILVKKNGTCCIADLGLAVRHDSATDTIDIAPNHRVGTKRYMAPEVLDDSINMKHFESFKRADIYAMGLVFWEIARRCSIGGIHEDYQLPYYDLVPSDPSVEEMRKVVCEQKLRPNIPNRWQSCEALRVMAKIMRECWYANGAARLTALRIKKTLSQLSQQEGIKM

One test has as its target human ALK5 (Homo sapiens (Human), UniProt P36897). As to the kind of experiment: ADP-GLO Kinases assay, inhibitory activity on ALK5. Format: biochemical.
Details: not given
The protocol:
The enzymatic activity of compounds of the present invention was monitored measuring the formation of ADP using the ADP-GLO Kinases assay. Following the incubation of the purified enzyme, a substrate and ATP, the produced ADP was converted into ATP, which in turn was converted into light by Ultra-Glo Luciferase. The luminescent signal positively correlated with ADP amount and kinase activity. […] The assay was performed in 384-well format and was validated using a selection of reference compounds that was tested in 11 point concentration-response curve.
(ADP-Glo first removes unused ATP, then detects ADP through luciferase.)
For `CN1CCC(CCN(C)C(=O)Oc2ccc3c(Nc4cnnc(-c5cc(Cl)ccc5F)c4)ccnc3c2)CC1` [Example 51, 4-{[6-(5-Chloro-2-Fluorophenyl)Pyridazin-4-Yl]Amino}Quinolin-7-Yl N-Methyl-N-[2-(1-Methylpiperidin-4-Yl)Ethyl]Carbamate], the concentration for half-maximal inhibition (IC50) – broadly, the concentration that gives 50% inhibition – fell in the range of 1 to 5 nM.

The same test, now with this note: purified recombinant human ALK5 2.6 nM, TGFβ1 peptide substrate, 25° C, 150 min incubation, ADP-Glo detection; read-out: ALK5 IC50.
As for `CCOC(=O)C1CN(CCC(=O)Nc2cc(Nc3cc(-c4cc(Cl)ccc4F)nnc3C)ccn2)CCN1C` (stereo not drawn) [Example 122, Ethyl 4-{2-[(4-{[6-(5-Chloro-2-Fluorophenyl)-3-Methylpyridazin-4-Yl]Amino}Pyridin-2-Yl)Carbamoyl]Ethyl}-1-Methylpiperazine-2-Carboxylate], the 50% inhibitory concentration (IC50) was less than 1 nM. `CN1CCN(CCC(=O)Nc2ccc3c(Nc4cnnc(-c5cc(Cl)ccc5F)c4)ccnc3c2)CC1` [Example 32, N-(4-{[6-(5-Chloro-2-Fluorophenyl)Pyridazin-4-Yl]Amino}Quinolin-7-Yl)-3-(4-Methylpiperazin-1-Yl)Propanamide]: the concentration for half-maximal inhibition (IC50) is less than 1 nM. On the same count and under the same terms, the figure for `CN1CCC(CCOc2ccc3c(Nc4cnnc(-c5cc(Cl)ccc5F)c4)ccnc3c2)CC1` [Example 17, N-[6-(5-Chloro-2-Fluorophenyl)Pyridazin-4-Yl]-7-[2-(1-Methylpiperidin-4-Yl)Ethoxy]Quinolin-4-Amine] is less than 1 nM; for `COC(=O)[C@H]1CC[C@H](c2nnc(-c3cc(Cl)ccc3F)cc2Nc2ccnc(NC(=O)CCN3CCN(C)CC3)c2)CC1` [Example 189, methyl trans-4-(6-(5-chloro-2-fluorophenyl)-4-((2-(3-(4-methylpiperazin-1-yl)propanamido)pyridin-4-yl)amino)pyridazin-3-yl)cyclohexane-1-carboxylate] it is less than 1 nM. The same measure, in the same setting: with `CN1CCCN(CC(=O)Nc2cc(Nc3cc(-c4cc(Cl)ccc4F)nnc3CO)ccn2)CC1` [Example 178, N-(4-{[6-(5-Chloro-2-Fluorophenyl)-3-(Hydroxymethyl)Pyridazin-4-Yl]Amino}Pyridin-2-Yl)-2-(4-Methyl-1,4-Diazepan-1-Yl)Acetamide] the figure was less than 1 nM. Still for that read-out and setting: with `Cc1nnc(-c2cc(Cl)ccc2F)cc1Nc1ccnc2cc(OC(=O)N3CC(N4CCCC4)C3)ccc12` [Example 152, 4-{[6-(5-Chloro-2-Fluorophenyl)-3-Methylpyridazin-4-Yl]Amino}Quinolin-7-Yl 3-(Pyrrolidin-1-Yl)Azetidine-1-Carboxylate] the figure was less than 1 nM; with `COC(=O)NCCN1CCN(CCC(=O)Nc2cc(Nc3cc(-c4cc(Cl)ccc4F)nnc3C)ccn2)CC1` [Example 82, Methyl N-[2-(4-{2-[(4-{[6-(5-Chloro-2-Fluorophenyl)-3-Methylpyridazin-4-Yl]Amino}Pyridin-2-Yl)Carbamoyl]Ethyl}Piperazin-1-Yl)Ethyl]Carbamate], less than 1 nM.

With `Cc1nnc(-c2cc(Cl)ccc2F)cc1Nc1ccnc(NC(=O)CN2CCN(C)CC2)c1` [Example 172, N-(4-{[6-(5-Chloro-2-Fluorophenyl)-3-Methylpyridazin-4-Yl]Amino}Pyridin-2-Yl)-2-(4-Methylpiperazin-1-Yl)Acetamide], the IC50 is less than 1 nM.

For `O=C(CCN1CCN(CC(F)(F)F)CC1)Nc1cc(Nc2cnnc(-c3cc(Cl)ccc3F)c2)ccn1` [Example 47, N-(4-{[6-(5-Chloro-2-Fluorophenyl)Pyridazin-4-Yl]Amino}Pyridin-2-Yl)-3-[4-(2,2,2-Trifluoroethyl)Piperazin-1-Yl]Propanamide], the half-inhibitory concentration (IC50) was in the range of 1 to 5 nM. On the same count and under the same terms, with `Cc1nnc(-c2cc(Cl)ccc2F)cc1Nc1ccnc(NC(=O)CCN2CC[S+]([O-])CC2)c1` [Example 130, N-(4-{[6-(5-Chloro-2-Fluorophenyl)-3-Methylpyridazin-4-Yl]Amino}Pyridin-2-Yl)-3-(1-Oxo-1V-Thiomorpholin-4-Yl)Propanamide] the figure was less than 1 nM.

In the case of `Fc1ccc(Cl)cc1-c1cc(Nc2ccnc3cc(OCCN4CCOCC4)ccc23)cnn1` [Example 3, N-[6-(5-Chloro-2-Fluorophenyl)Pyridazin-4-Yl]-7-[2-(Morpholin-4-Yl)Ethoxy]Quinolin-4-Amine], the IC50 is less than 1 nM. On the same count and under the same terms, with `CS(=O)(=O)NCCN1CCN(CCOc2ccc3c(Nc4cnnc(-c5cc(Cl)ccc5F)c4)ccnc3c2)CC1` [Example 67, N-[2-(4-{2-[(4-{[6-(5-Chloro-2-Fluorophenyl)Pyridazin-4-Yl]Amino}Quinolin-7-Yl)Oxy]Ethyl}Piperazin-1-Yl)Ethyl]Methanesulfonamide] the figure was less than 1 nM; with `O=C(Oc1ccc2c(Nc3cnnc(-c4cc(Cl)ccc4F)c3)ccnc2c1)N1CCC(N2CCC2)CC1` [Example 134, 4-{[6-(5-Chloro-2-Fluorophenyl)Pyridazin-4-Yl]Amino}Quinolin-7-Yl 4-(Azetidin-1-Yl)Piperidine-1-Carboxylate], less than 1 nM.

In the case of `Cc1nnc(-c2cc(Cl)ccc2F)cc1Nc1ccnc(NC(=O)CN2CCN(CCN)CC2)c1` [Example 108, 2-[4-(2-Aminoethyl)Piperazin-1-Yl]-N-(4-{[6-(5-Chloro-2-Fluorophenyl)-3-Methylpyridazin-4-Yl]Amino}Pyridin-2-Yl)Acetamide], the half-maximal inhibitory concentration (IC50) was less than 1 nM.

`Cc1nnc(-c2cc(Cl)ccc2F)cc1Nc1ccnc2[nH]c(C(=O)N(C)CCN3CCN(C)CC3)cc12` [Example 50, 4-{[6-(5-Chloro-2-Fluorophenyl)-3-Methylpyridazin-4-Yl]Amino}-N-Methyl-N-[2-(4-Methylpiperazin-1-Yl)Ethyl]-1H-Pyrrolo[2,3-b]Pyridine-2-Carboxamide]: the concentration for half-maximal inhibition (IC50) is less than 1 nM. The same measure, in the same setting: the figure for `O=C(OCCN1CCOCC1)c1ccc2c(Nc3cnnc(-c4cc(Cl)ccc4F)c3)ccnc2c1` [Example 6, 2-(Morpholin-4-Yl)Ethyl 4-{[6-(5-Chloro-2-Fluorophenyl)Pyridazin-4-Yl]Amino}Quinoline-7-Carboxylate] is less than 1 nM; for `CS(=O)(=O)N1CCN(CCC(=O)Nc2cc(Nc3cnnc(-c4cc(Cl)ccc4F)c3)ccn2)CC1` [Example 34, N-(4-{[6-(5-Chloro-2-Fluorophenyl)Pyridazin-4-Yl]Amino}Pyridin-2-Yl)-3-(4-Methanesulfonylpiperazin-1-Yl)Propanamide] it is 1 to 5 nM. Turning to `Cc1nnc(-c2cc(Cl)ccc2F)cc1Nc1ccnc(NC(=O)CCN2CC3(CN(C)C3)C2)c1` [Example 138, N-(4-{[6-(5-Chloro-2-Fluorophenyl)-3-Methylpyridazin-4-Yl]Amino}Pyridin-2-Yl)-3-{6-Methyl-2,6-Diazaspiro[3.3]Heptan-2-Yl}Propanamide], the IC50 is less than 1 nM.

In the case of `Cc1nnc(-c2cc(Cl)ccc2F)cc1Nc1ccnc(NC(=O)CCN2CCN(C)C(C(=O)OC(C)C)C2)c1` (stereo not drawn) [Example 126, Propan-2-Yl 4-{2-[(4-{[6-(5-Chloro-2-Fluorophenyl)-3-Methylpyridazin-4-Yl]Amino}Pyridin-2-Yl)Carbamoyl]Ethyl}-1-Methylpiperazine-2-Carboxylate], the half-maximal inhibitory concentration (IC50) was less than 1 nM.

In the case of `O=C(CCN1CCN(CCO)CC1)Nc1cc(Nc2cc(-c3cc(Cl)ccc3F)nnc2C(F)(F)F)ccn1` [Example 184, N-(4-{[6-(5-Chloro-2-Fluorophenyl)-3-(Trifluoromethyl)Pyridazin-4-Yl]Amino}Pyridin-2-Yl)-3-[4-(2-Hydroxyethyl)Piperazin-1-Yl]Propenamide], the half-maximal inhibitory concentration (IC50) is less than 1 nM. With `CN1CCC(NC(=O)c2cc3c(Nc4cnnc(-c5cc(Cl)ccc5F)c4)ccnc3cn2)CC1` [Example 26, 4-{[6-(5-Chloro-2-Fluorophenyl)Pyridazin-4-Yl]Amino}-N-(1-Methylpiperidin-4-Yl)-1,7-Naphthyridine-6-Carboxamide], the 50% inhibitory concentration (IC50) was 1 to 5 nM.

For the molecule `CS(=O)(=O)CCN1CCN(CCC(=O)Nc2cc(Nc3cc(-c4cc(Cl)ccc4F)nnc3C(F)(F)F)ccn2)CC1` [Example 185], the 50% inhibitory concentration (IC50) was less than 1 nM. Still for that read-out and setting: with `O=C(NCCN1CCNCC1)c1ccc2c(Nc3cnnc(-c4cc(Cl)ccc4F)c3)ccnc2c1` [Example 10, 4-{[6-(5-Chloro-2-Fluorophenyl)Pyridazin-4-Yl]Amino}-N-[2-(Piperazin-1-Yl)Ethyl]Quinoline-7-Carboxamide] the figure was less than 1 nM; with `Cc1nnc(-c2cc(Cl)ccc2F)cc1Nc1ccnc(NC(=O)CCN2CCN(CCO)CC2)c1` [Example 80, N-(4-{[6-(5-Chloro-2-Fluorophenyl)-3-Methylpyridazin-4-Yl]Amino}Pyridin-2-Yl)-3-[4-(2-Hydroxyethyl)Piperazin-1-Yl]Propanamide], less than 1 nM. Still for that read-out and setting: with `CCN1CCN(CCOc2ccc3c(Nc4cnnc(-c5cc(Cl)ccc5F)c4)ccnc3c2)CC1` [Example 30, N-[6-(5-Chloro-2-Fluorophenyl)Pyridazin-4-Yl]-7-[2-(4-Ethylpiperazin-1-Yl)Ethoxy]Quinolin-4-Amine] the figure was less than 1 nM; with `O=C(CCCN1CCOCC1)Nc1cc(Nc2cnnc(-c3cc(Cl)ccc3F)c2)ccn1` [Example 8, N-(4-{[6-(5-Chloro-2-Fluorophenyl)Pyridazin-4-Yl]Amino}Pyridin-2-Yl)-4-(Morpholin-4-Yl)Butanamide], less than 1 nM; with `Cc1nnc(-c2cc(Cl)ccc2F)cc1Nc1ccnc(NC(=O)CCN2CCN(C)C3(CC3)C2)c1` [Example 135, N-(4-{[6-(5-Chloro-2-Fluorophenyl)-3-Methylpyridazin-4-Yl]Amino}Pyridin-2-Yl)-3-{4-Methyl-4,7-Diazaspiro[2.5]Octan-7-Yl}Propanamide], less than 1 nM.

`CN1CCN(CCNC(=O)c2ccc3c(Nc4cnnc(-c5cc(Cl)ccc5F)c4)ccnc3c2)CC1` [Example 13, 4-{[6-(5-Chloro-2-Fluorophenyl)Pyridazin-4-Yl]Amino}-N-[3-(4-Methylpiperazin-1-Yl)Ethyl]Quinoline-7-Carboxamide]: the IC50 is less than 1 nM. The same measure, in the same setting: the figure for `Cc1nnc(-c2cc(Cl)ccc2F)cc1Nc1ccnc(NC(=O)CCN2CCN(C)C(C(=O)OC3CC3)C2)c1` (stereo not drawn) [Example 127, Cyclopropyl 4-{2-[(4-{[6-(5-Chloro-2-Fluorophenyl)-3-Methylpyridazin-4-Yl]Amino}Pyridin-2-Yl)Carbamoyl]Ethyl}-1-Methylpiperazine-2-Carboxylate] is less than 1 nM.
